The target in this experiment is 5-HT2A receptors (Rattus norvegicus, UniProt P14842). The experiment can be described thus: in-vitro affinity to 5-HT2A receptors, displacement of [3H]ketanserine (Example A1). Conditions: target not given; description names affinity to 5-HT2A receptors; read-out: IC50. The experiment is classed as binding. An excerpt:
The 5-HT2A receptors are exposed both to [^3H]ketanserine (a substance which is known for its affinity to the receptor) and also to the test compound. The decrease in the affinity of [^3H]ketanserine to the receptor is an indication of the affinity of the test substance to the 5-HT2A receptor.
(In general: Displacement assays read how much labelled ligand stays bound in the presence of the test substance.)

5-HT2A receptors, sequence (P14842 whole entry): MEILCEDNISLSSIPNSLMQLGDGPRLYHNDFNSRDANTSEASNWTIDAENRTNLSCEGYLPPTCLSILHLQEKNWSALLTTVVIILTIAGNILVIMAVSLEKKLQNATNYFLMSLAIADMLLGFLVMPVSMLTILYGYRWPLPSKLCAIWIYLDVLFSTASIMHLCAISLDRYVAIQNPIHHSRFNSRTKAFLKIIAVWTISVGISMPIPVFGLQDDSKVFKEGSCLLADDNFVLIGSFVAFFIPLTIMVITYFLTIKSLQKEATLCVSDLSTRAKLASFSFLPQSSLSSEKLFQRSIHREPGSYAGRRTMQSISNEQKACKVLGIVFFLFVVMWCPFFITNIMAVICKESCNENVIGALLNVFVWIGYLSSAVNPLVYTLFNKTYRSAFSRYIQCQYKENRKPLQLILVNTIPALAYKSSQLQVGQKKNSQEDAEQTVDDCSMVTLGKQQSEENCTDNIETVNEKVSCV

`CNC(=O)CNCc1cnn(-c2ccc(-c3ccccc3)cc2)c1-c1ccccc1F` [(130), 2-{[1-Biphenyl-4-yl-5-(2-fluorophenyl)-1H-pyrazol-4-ylmethyl]-amino}-N-methylacetamide]: the IC50 (as a rule, the concentration that gives 50% inhibition) was 600 nM.

Take `O=C1NOCC1NCc1cnn(-c2ccc(-c3ccccc3)cc2)c1-c1ccccc1F` (stereo not shown) [(131), 4-{[1-Biphenyl-4-yl-5-(2-fluorophenyl)-1H-pyrazol-4-ylmethyl]-amino}isoxazolidin-3-one]: the IC50 worked out at 6000 nM. Take `CN(CC(N)=O)Cc1cnn(-c2ccc(-c3ccccc3)cc2)c1-c1ccccc1F` [(132), 2-{[1-Biphenyl-4-yl-5-(2-fluorophenyl)-1H-pyrazol-4-ylmethyl]-methylamino}acetamide]: the IC50 is 920 nM. Regarding `Fc1ccccc1-c1c(CNCc2nc3ccccc3[nH]2)cnn1-c1ccc(-c2ccccc2)cc1` [(133), (1H-Benzoimidazol-2-ylmethyl)-[1-biphenyl-4-yl-5-(2-fluorophenyl)-1H-pyrazol-4-ylmethyl]amine], the IC50 came to 76 nM. `COCCN(C)Cc1cnn(-c2ccc(-c3ccccc3)nc2)c1-c1ccccc1F` [(134), [5-(2-Fluorophenyl)-1-(6-phenylpyridin-3-yl)-1H-pyrazol-4-ylmethyl]-(2-methoxyethyl)methylamine]: the IC50 came out at 300 nM. To `Fc1ccccc1-c1c(CN2CCN(Cc3ccsc3)CC2)cnn1-c1ccc(-c2ccccc2)cc1` [(135), 1-[1-Biphenyl-4-yl-5-(2-florophenyl)-1H-pyrazol-4-ylmethyl]-4-thiophen-3-ylmethylpiperazine] belongs 380 nM. Turning to `N#CC(NCc1cnn(-c2ccc(-c3ccccc3)cc2)c1-c1ccccc1F)C(N)=O` (stereo not shown) [(136), 2-{[1-Biphenyl-4-yl-5-(2-fluorophenyl)-1H-pyrazol-4-ylmethyl]-amino}-2-cyanoacetamide], the half-maximal inhibitory concentration (IC50) came out at 130 nM. In the case of `OCC(Cc1cnc[nH]1)NCc1cnn(-c2ccc(-c3ccccc3)cc2)c1-c1ccccc1F` (stereo not shown) [(137), 2-{[1-Biphenyl-4-yl-5-(2-fluorophenyl)-1H-pyrazol-4-ylmethyl]-amino}-3-(3H-imidazol-4-yl)propan-1-ol], the IC50 came to 370 nM. Take `Fc1ccccc1-c1c(CNc2ccon2)cnn1-c1ccc(-c2ccccc2)cc1` [(138), [1-Biphenyl-4-yl-5-(2-fluorophenyl)-1H-pyrazol-4-ylmethyl]-isoxazol-3-ylamine]: the IC50 turned out to be 240 nM. For `CCNC(=O)CN1CCN(Cc2cnn(-c3ccc(-c4ccccc4)cc3)c2-c2ccccc2F)CC1` [(139), 2-{4-[1-Biphenyl-4-yl-5-(2-fluorophenyl)-1H-pyrazol-4-ylmethyl]piperazin-1-yl}-N-ethylacetamide], the IC50 was 230 nM.

Turning to `Fc1ccc(F)c(-c2ccc(-n3ncc(CNc4cc[nH]n4)c3-c3ccccc3F)cc2)c1` [(140), [1-(2′,5′-Difluorobiphenyl-4-yl)-5-(2-fluorophenyl)-1H-pyrazol-4-ylmethyl]-(1H-pyrazol-3-yl)amine], the IC50 is 180 nM. Under `CN(C)CCN(C)Cc1cnn(-c2ccc(-c3ccc(F)cc3)nc2)c1-c1ccccc1F` [(141), N-{5-(2-fluorophenyl)-1-[6-(4-fluorophenyl)pyridin-3-yl]-1H-pyrazol-4-ylmethyl}-N,N′,N′-trimethylethane-1,2-diamine] stands 140 nM; under `Fc1ccc(-c2ccc(-n3ncc(CN4CCCC4)c3-c3ccccc3F)cn2)cc1` [(142), 2-(4-Fluorophenyl)-5-[5-(2-fluorophenyl)-4-pyrrolidin-1-ylmethylpyrazol-1-yl]pyridine], 75 nM; under `CN1CCC(N(C)Cc2cnn(-c3ccc(-c4ccc(F)cc4)nc3)c2-c2ccccc2F)CC1` [(143), {5-(2-Fluorophenyl)-1-[6-(4-fluorophenyl)pyridin-3-yl]-1H-pyrazol-4-ylmethyl}methyl-(1-methylpiperidin-4-yl)amine], 250 nM. Under `Fc1ccc(-c2ccc(-n3ncc(CNc4cccnc4)c3-c3ccccc3F)cn2)cc1` [(144), {5-(2-Fluorophenyl)-1-[6-(4-fluorophenyl)pyridin-3-yl]-1H-pyrazol-4-ylmethyl}pyridin-3-ylamine] stands 890 nM; under `NC(=O)C1CCCN1Cc1cnn(-c2ccc(-c3ccccc3F)nc2)c1-c1ccccc1F` (stereo not shown) [(145), 1-{5-(2-Fluorophenyl)-1-[6-(2-fluorophenyl)pyridin-3-yl]-1H-pyrazol-4-ylmethyl}pyrrolidine-2-carboxamide], 220 nM; under `Fc1ccccc1-c1ccc(-n2ncc(CN3CCOCC3)c2-c2ccccc2F)cn1` [(146), 4-{5-(2-Fluorophenyl)-1-[6-(2-fluorophenyl)pyridin-3-yl]-1H-pyrazol-4-ylmethyl}morpholine], 600 nM. `CN1CCN(Cc2cnn(-c3ccc(-c4cc(F)ccc4F)nc3)c2-c2ccccc2F)CC1` [(147), 1-[1-[6-(2,5-Difluorophenyl)pyridin-3-yl]-5-(2-fluorophenyl)-1H-pyrazol-4-ylmethyl]-4-methylpiperazine]: the IC50 is 430 nM. In the case of `CCOC(=O)CNCc1cnn(-c2ccc(-c3ccccc3F)nc2)c1-c1ccccc1F` [(148), Ethyl ({5-(2-fluorophenyl)-1-[6-(2-fluorophenyl)pyridin-3-yl]-1H-pyrazol-4-ylmethyl}amino)acetate], the IC50 was 1600 nM. Consider `CN1CCN(CC(O)CC(O)c2cnn(-c3ccc(-c4ccccc4)cc3)c2-c2ccccc2F)CC1` (stereo not shown) [(149), 1-[1-Biphenyl-4-yl-5-(2-fluorophenyl)-1H-pyrazol-4-yl]-4-(4-methylpiperazin-1-yl)butane-1,3-diol], for which the IC50 is 620 nM. As for `C=CCC(O)c1cnn(-c2ccc(-c3ccccc3)cc2)c1-c1ccccc1F` (stereo not shown) [(150), 1-[1-Biphenyl-4-yl-5-(2-fluorophenyl)-1H-pyrazol-4-yl]-but-3-en-1-ol], the IC50 came to 1300 nM.

Take `O=C1CCCN1CCCNCc1cnn(-c2ccc(-c3ccccc3)cc2)c1-c1ccccc1F` [(151), 1-(3-{[1-Biphenyl-4-yl-5-(2-fluorophenyl)-1H-pyrazol-4-ylmethyl]amino}propyl)pyrrolidin-2-one]: the IC50 amounted to 64 nM. With `Fc1ccccc1-c1c(CNCCCn2ccnc2)cnn1-c1ccc(-c2ccccc2)cc1` [(152), [1-Biphenyl-4-yl-5-(2-fluorophenyl)-1H-pyrazol-4-ylmethyl]-(3-imidazol-1-ylpropyl)amine], the IC50 is 130 nM. For the compound `CCOC(=O)CNC(=O)CNCc1cnn(-c2ccc(-c3ccccc3)cc2)c1-c1ccccc1F` [(153), Ethyl (2-{[1-Biphenyl-4-yl-5-(2-fluorophenyl)-1H-pyrazol-4-ylmethyl]amino}ethanoylamino)acetate], the IC50 stood at 1100 nM.

With `Fc1ccccc1-c1c(CNCCc2c[nH]cn2)cnn1-c1ccc(-c2ccccc2)cc1` [(154), [1-Biphenyl-4-yl-5-(2-fluorophenyl)-1H-pyrazol-4-ylmethyl]-[2-(1H-imidazol-4-yl)ethyl]amine], the IC50 came to 170 nM.

Consider `NC(=O)C1CCCN1Cc1cnn(-c2ccc(-c3ccccc3)cc2)c1-c1ccccc1F` (stereo not shown) [(155), 1-[1-Biphenyl-4-yl-5-(2-fluorophenyl)-1H-pyrazol-4-ylmethyl]-pyrrolidine-2-carboxamide], for which the 50% inhibitory concentration (IC50) came to 1700 nM. Regarding `COCCN(C)Cc1cnn(-c2ccc(-c3ccc(F)cc3)nc2)c1-c1ccccc1F` [(156), {5-(2-Fluorophenyl)-1-[6-(4-fluorophenyl)pyridin-3-yl]-1H-pyrazol-4-ylmethyl}-(2-methoxyethyl)methylamine], the IC50 came out at 300 nM. On to `COCCN(C)Cc1cnn(-c2ccc(-c3ccccc3F)nc2)c1-c1ccccc1F` [(157), {5-(2-Fluorophenyl)-1-[6-(2-fluorophenyl)pyridin-3-yl]-1H-pyrazol-4-ylmethyl}-(2-methoxyethyl)methylamine], for which the IC50 was 2000 nM. Under `Fc1ccccc1-c1c(CNc2cnccn2)cnn1-c1ccc(-c2ccccc2)cc1` [(158), [1-Biphenyl-4-yl-5-(2-fluorophenyl)-1H-pyrazol-4-ylmethyl]-pyrazin-2-ylamine] stands 2300 nM; under `COCCN(C)Cc1cnn(-c2ccc(-c3cc(F)ccc3F)nc2)c1-c1ccccc1F` [(159), [1-[6-(2,5-Difluorophenyl)pyridin-3-yl]-5-(2-fluorophenyl)-1H-pyrazol-4-ylmethyl]-(2-methoxyethyl)-methylamine], 1400 nM; under `Fc1ccccc1-c1c(CN2CCC2)cnn1-c1ccc(-c2ccccc2)cc1` [(160), 4-Azetidin-1-ylmethyl-1-biphenyl-4-yl-5-(2-fluorophenyl)-1H-pyrazole], 47 nM.

Take `Fc1ccccc1-c1c(CNC2CCN(Cc3ccccc3)C2)cnn1-c1ccc(-c2ccccc2)cc1` (stereo not shown) [(161), (1-Benzylpyrrolidin-3-yl)-[1-biphenyl-4-yl-5-(2-fluorophenyl)-1H-pyrazol-4-ylmethyl]amine]: the IC50 is 310 nM. In the case of `COC(=O)c1cc(NCc2cnn(-c3ccc(-c4ccccc4)cc3)c2-c2ccccc2F)cn1C` [(162), Methyl 4-{[1-biphenyl-4-yl-5-(2-fluorophenyl)-1H-pyrazol-4-ylmethyl]amino}-1-methyl-1H-pyrrole-2-carboxylate], the IC50 came out at 120 nM. Consider `O=C1NCCCCC1NCc1cnn(-c2ccc(-c3ccccc3)cc2)c1-c1ccccc1F` (stereo not shown) [(163), 3-{[1-Biphenyl-4-yl-5-(2-fluorophenyl)-1H-pyrazol-4-ylmethyl]-amino}azepan-2-one], for which the IC50 worked out at 510 nM.

On to `O=C(NCCO)C1CCN(Cc2cnn(-c3ccc(-c4ccccc4)cc3)c2-c2ccccc2F)CC1` [(164), N-(2-Hydroxyethyl)-1-[1-biphenyl-4-yl-5-(2-fluorophenyl)-1H-pyrazol-4-ylmethyl]piperidine-4-carboxamide], for which the IC50 turned out to be 270 nM.

`NCc1cnn(-c2ccc(-c3ccccc3)cc2)c1-c1ccccc1` [(165), C-(1-Biphenyl-4-yl-5-phenyl-1H-pyrazol-4-yl)methylamine]: the IC50 was found to be 21 nM. As for `Fc1ccccc1-c1c(C=NNC2=NCCN2)cnn1-c1ccc(-c2ccccc2)cc1` [(166), N-[1-Biphenyl-4-yl-5-(2-fluorophenyl)-1H-pyrazol-4-yl-methylene]-N′-(4,5-dihydro-1H-imidazol-2-yl)hydrazine], the half-inhibitory concentration (IC50) was found to be 1200 nM.

The values are drawn from patent US20060264419A1 (priority 2003, published 2006).
